These results are taken from patent publication US20260021061A1, “ARIADNE AND ANALOGS FOR THE TREATMENT OF NEUROLOGICAL AND NEUROMUSCLAR DISORDERS” (priority 2022, published 2026).

The structures appear in SMILES notation. A value given as a limit tells only on which side of the number the result lay.

One series addresses T1, Cyclooxygenase COX-2 (Homo sapiens, UniProt P35354).
T1 construct: Eurofins-Panlabs (contract screen) 118030
Description: SafetyScreen44 118030. The series is classed as biochemical. Particulars: 10 μM; Arachidonic acid; recombinant. Here is the method: (§1) A broad screen of 44 molecular targets (SafetyScreen44, Eurofins-Panlabs) for Ariadne were performed, which includes G protein-coupled receptors, steroid nuclear receptors, ion channels, neurotransmitter transporters, and metabolic and signaling enzymes. Only two molecular targets, 5-HT2A and 5-HT2B receptors, emerged above the positive hit threshold, defined as 50% displacement of standard radioligands by 10 uM concentration of Ariadne (FIG. 1b, and Table 1).
(§2) For species, “H”=human, “R”=rat. Test compound screened at all targets at concentration of 10 μM.

The next series deals with Glutamate, NMDA, Agonism. Description: SafetyScreen44 232810. The series is classed as binding, rat. The note with it: 10 μM; [3H]CGP-39653; cerebral cortex. Here is the method:
as §1, §2

Another series deals with T2, Opiate kappa (OP2, KOP) (Homo sapiens, UniProt P41145).
T2 construct: purchased Eurofins-Panlabs (contract screen SafetyScreen44) assay ID 260210
The experiment in a line: SafetyScreen44 260210. The series is classed as binding. The note with it: 10 μM; [3H]Diprenorphine; recombinant. Here is the method: as §1, §2

Series [1] has as its target T3, Potassium Channel hERG, [3H]Dofetilide (Homo sapiens, UniProt Q12809).
T3 construct: purchased Eurofins-Panlabs (contract screen SafetyScreen44) assay ID 265910
The experiment in a line: SafetyScreen44 265910. The series is classed as binding. Particulars: 10 μM, recombinant. The method, then:
as §1, §2

The target in series [2] is T4, Serotonin (5-Hydroxytryptamine) 5-HT1A (Homo sapiens, UniProt P08908).
T4 construct: purchased Eurofins-Panlabs (contract screen SafetyScreen44) assay ID 271110
Description: SafetyScreen44 271110. The series is classed as binding. Particulars: 10 μM; [3H]8-OH-DPAT; recombinant. Here is the method: as §1, §2

In another series the target is hSERT (Homo sapiens, UniProt P31645). The experiment in a line: SERT-mediated cell uptake assay (fluorescence uptake inhibition). The series is classed as cell-based.
The test system of a further series is rats. The note with it: rat, in vivo; cited from earlier work.
For series [3], the system named is auxilin knockout (KO) mice. Description: Balance beam test in auxilin KO mouse model of Parkinson's Disease. The series is classed as in vivo. The note with it: Aux-KO mice 9-12 months; 10 mg/kg intraperitoneal; 15 to 30 minutes after treatment. The text has this: R-Ariadne ameliorates motor abnormalities in a mouse model of Parkinson's Disease. In the 1978 patent from the Bristol Laboratories, the inventors noted complete remission of Parkinson's symptoms in two patients (Partyka el al., U.S. Pat. No. 4,105,695, 1978). To address and examine these claims via reverse translation in mice, we used a novel model of PD based on auxilin knockout (KO) mice (Vidyadhara et al., 2022). Auxilin is a clathrin uncoating protein that participates in clathrin mediated endocytosis of synaptic vesicles (SV), enabling SV recycling and neurotransmission (Vidyadhara et al., 2022). Loss-of-function mutations in auxilin (DNAJC6/PARK19) cause PD. Auxilin KO mice display cardinal features of PD such as progressive motor deficits, nigral dopaminergic neuronal loss, α-synuclein pathology, and neuroinflammation. 9-12 month old Aux-KO mice were previously shown to respond to L-DOPA treatment, which ameliorated PD-like motor abnormalities (Vidyadhara et al., 2022). […] The balance beam test evaluates fine motor skills such as ability to walk on a raised narrow beam to reach a safety box, measured as a number of runs/minute and time taken to cross the beam (FIGS. 9-10). […]

hSERT, sequence (P31645 whole entry): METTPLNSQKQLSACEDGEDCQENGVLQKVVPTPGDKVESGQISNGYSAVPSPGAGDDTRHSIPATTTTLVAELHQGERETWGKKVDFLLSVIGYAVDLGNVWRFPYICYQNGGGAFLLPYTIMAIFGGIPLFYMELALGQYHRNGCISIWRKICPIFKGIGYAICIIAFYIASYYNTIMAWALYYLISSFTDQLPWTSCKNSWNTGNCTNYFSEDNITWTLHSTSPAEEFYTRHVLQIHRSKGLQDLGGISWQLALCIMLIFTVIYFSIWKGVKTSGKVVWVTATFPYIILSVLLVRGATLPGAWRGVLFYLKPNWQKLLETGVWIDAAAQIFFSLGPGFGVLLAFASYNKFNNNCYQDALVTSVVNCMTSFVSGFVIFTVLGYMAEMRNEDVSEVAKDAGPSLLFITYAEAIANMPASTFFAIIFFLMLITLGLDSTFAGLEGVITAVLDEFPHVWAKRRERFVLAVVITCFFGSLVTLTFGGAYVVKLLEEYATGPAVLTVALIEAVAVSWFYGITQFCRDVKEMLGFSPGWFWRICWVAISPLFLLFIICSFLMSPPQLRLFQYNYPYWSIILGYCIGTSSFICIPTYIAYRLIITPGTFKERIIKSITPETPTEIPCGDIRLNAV
T2 sequence (P41145 whole entry): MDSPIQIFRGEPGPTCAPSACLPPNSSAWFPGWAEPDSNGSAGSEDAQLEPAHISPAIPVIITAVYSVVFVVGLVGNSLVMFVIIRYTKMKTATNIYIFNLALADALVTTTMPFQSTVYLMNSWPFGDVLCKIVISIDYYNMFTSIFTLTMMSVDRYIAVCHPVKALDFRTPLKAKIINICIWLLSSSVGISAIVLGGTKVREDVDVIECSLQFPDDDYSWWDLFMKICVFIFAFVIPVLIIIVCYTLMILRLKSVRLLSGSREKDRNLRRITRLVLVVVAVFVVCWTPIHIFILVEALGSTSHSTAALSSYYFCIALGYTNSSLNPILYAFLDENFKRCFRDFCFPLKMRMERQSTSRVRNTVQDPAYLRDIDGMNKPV
T3 sequence (Q12809 whole entry): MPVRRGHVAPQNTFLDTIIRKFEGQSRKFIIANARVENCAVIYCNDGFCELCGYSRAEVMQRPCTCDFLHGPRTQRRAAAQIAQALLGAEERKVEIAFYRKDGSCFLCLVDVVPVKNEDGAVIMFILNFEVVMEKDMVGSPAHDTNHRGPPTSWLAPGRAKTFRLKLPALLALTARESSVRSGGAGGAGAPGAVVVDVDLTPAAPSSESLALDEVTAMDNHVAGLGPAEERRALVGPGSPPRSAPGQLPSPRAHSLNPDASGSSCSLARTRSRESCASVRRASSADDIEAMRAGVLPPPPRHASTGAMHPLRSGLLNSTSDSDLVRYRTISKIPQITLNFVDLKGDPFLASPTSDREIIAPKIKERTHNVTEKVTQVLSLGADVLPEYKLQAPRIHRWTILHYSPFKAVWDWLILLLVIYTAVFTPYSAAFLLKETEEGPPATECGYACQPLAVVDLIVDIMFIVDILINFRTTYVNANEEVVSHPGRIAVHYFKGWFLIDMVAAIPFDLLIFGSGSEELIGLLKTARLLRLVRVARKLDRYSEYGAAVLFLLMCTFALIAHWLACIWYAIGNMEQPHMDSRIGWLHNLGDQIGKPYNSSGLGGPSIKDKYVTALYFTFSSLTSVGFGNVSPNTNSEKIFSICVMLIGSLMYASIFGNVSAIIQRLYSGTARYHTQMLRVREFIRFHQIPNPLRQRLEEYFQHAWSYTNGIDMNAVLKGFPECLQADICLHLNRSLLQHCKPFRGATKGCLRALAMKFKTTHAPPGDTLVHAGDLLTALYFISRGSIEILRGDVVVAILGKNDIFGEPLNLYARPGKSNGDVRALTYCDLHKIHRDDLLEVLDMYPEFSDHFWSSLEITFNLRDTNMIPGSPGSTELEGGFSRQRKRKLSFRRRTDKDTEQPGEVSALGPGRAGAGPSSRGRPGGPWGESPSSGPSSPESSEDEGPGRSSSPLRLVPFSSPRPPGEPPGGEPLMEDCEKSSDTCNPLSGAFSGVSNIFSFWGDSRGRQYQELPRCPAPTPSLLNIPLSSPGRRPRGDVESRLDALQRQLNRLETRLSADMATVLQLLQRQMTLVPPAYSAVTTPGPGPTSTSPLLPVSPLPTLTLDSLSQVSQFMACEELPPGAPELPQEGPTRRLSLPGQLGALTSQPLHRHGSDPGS
T1 sequence (P35354 18-604): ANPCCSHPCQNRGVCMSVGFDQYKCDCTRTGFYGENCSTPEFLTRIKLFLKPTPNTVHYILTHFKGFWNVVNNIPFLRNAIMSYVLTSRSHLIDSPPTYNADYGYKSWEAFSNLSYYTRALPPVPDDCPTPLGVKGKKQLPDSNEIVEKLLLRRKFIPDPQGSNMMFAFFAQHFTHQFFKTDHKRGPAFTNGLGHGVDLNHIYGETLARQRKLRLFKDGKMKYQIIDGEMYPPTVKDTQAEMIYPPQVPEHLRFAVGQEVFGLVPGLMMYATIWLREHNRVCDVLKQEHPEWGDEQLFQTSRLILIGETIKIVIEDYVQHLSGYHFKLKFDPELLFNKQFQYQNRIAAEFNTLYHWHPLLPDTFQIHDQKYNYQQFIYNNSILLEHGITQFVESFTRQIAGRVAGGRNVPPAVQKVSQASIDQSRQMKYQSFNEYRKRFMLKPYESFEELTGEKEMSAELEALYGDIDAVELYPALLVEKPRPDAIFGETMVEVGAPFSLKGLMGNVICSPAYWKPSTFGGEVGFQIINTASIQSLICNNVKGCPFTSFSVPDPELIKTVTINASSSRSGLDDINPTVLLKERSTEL
T4 sequence (P08908 whole entry): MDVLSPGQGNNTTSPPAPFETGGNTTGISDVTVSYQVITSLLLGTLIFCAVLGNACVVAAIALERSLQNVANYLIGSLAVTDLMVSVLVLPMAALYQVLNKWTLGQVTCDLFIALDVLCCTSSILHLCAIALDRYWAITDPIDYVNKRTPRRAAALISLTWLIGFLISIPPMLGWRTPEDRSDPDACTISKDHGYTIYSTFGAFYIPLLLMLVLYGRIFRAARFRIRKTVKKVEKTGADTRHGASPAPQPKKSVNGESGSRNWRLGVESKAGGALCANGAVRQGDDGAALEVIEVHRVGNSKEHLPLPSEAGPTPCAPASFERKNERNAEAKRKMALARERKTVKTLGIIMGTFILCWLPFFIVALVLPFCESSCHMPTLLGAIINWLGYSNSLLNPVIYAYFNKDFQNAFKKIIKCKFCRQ

Turning to `CCC(N)Cc1cc(OC)c(C)cc1OC` (racemic) [Compound 32, 1-(2,5-dimethoxy-4-methylphenyl)butan-2-amine], the “% Response” value is −2% on Cyclooxygenase COX-2; −5% in the series on Glutamate, NMDA, Agonism; 3% on Opiate kappa (OP2, KOP); 18% in series [1]; 36% in series [2]. On hSERT, this compound registered an IC50 greater than 50 µM. In addition, in the series with rats, the “substitution for MDMA stimulus” value is recorded as “full substitution”. The “substitution in LSD trained animals” value in the series with rats is given as “substituted responding”.

In the case of `CC[C@@H](N)Cc1cc(OC)c(C)cc1OC` [(R)-Ariadne], the “number of balance beam runs per minute” value in series [3] was “significantly higher and comparable to WT mice”.
